Measured values as given in paper PMC10799085, “A miniaturized mode-of-action profiling platform enables high throughput characterization of the molecular and cellular dynamics of EZH2 inhibition” (Scientific Reports, 2024).
Read-outs that look alike come from different tables or passages of the source.

What was measured:
PRC2/EZH2+/+ [1] = target: T1, PRC2/EZH2+/+ (Homo sapiens, UniProt Q15910); experiment: Equilibrium probe competition assay (ePCA), TR-FRET; format: binding
T1 construct: purchased Active Motif

PRC2/EZH2Y641N [2] = target: T2, PRC2/EZH2Y641N (Homo sapiens, UniProt Q15910, Y641N); experiment: Kinetic probe competition assay (kPCA), TR-FRET; format: binding
T2 construct: Synthetic cDNA encoding N-terminal 6His-tagged full length EZH2^Y641N; 6His (N); made in house; host or cells: Sf9 insect cells (baculovirus co-infection)
From the text: (§1) Biotinylated PRC2 complexes and the fluorescent probe used in TR-FRET assays were generated as described in the supplementary methods section.

PRC2/EZH2Y641N [3] = target: T2, PRC2/EZH2Y641N; experiment: Equilibrium probe competition assay (ePCA), TR-FRET; format: binding
PRC2/EZH2+/+ [4] = target: T1, PRC2/EZH2+/+; experiment: Scintillation proximity assay (SPA) of H3K27 methylation; format: biochemical
Method: (§2) Assay-ready plates containing 50 nl of compound dilutions and DMSO controls were filled with 2.5 µL enzyme solution and pre-incubated for 15 min. […] Experiments were also performed without pre-incubation of enzyme and compounds. In this case, the substrate solution was added before enzyme. The reaction was stopped using 1.6 µg/µl streptavidin beads (Perkin Elmer) and 700 µM of SAM (Perkin Elmer). The plates were sealed with transparent foil.
(§3) For equilibrium binding competition (ePCA) and SPA enzyme inhibition assays, raw data import, quality control, normalization, and curve fitting to a 4-parameter logistic equation for IC50 determination were performed using the Genedata Screener® software (Genedata AG). ePCA Ki values were either calculated using the Cheng-Prussof equation[68] or with the GraphPad Prism model “One-site—Fit Ki”.

PRC2/EZH2Y641N [5] = target: T2, PRC2/EZH2Y641N; experiment: as above; format: biochemical
Method: as §2, §3

PRC2/EZH2 Y111L = target: T3, PRC2/EZH2 Y111L (Homo sapiens, UniProt Q15910, Y111L); experiment: as above; format: biochemical
T3 construct: N-terminal 6His-tagged full length EZH2^Y641N, EZH2^Y111L; 6His (N); made in house; host or cells: Sf9 insect cells (baculovirus co-infection)
Method: as §2, §3

PRC2/EZH2Y641N+Y661D = target: T4, PRC2/EZH2Y641N+Y661D (Homo sapiens, UniProt Q15910, Y641N/Y661D); experiment: as above; format: biochemical
T4 construct: N-terminal 6His-tagged full length EZH2^Y641N, EZH2^Y111L, EZH2^Y111D, EZH2^Y641N, Y661DEZH2, EZH1; 6His (N); made in house; host or cells: Sf9 insect cells (baculovirus co-infection)
Method: as §2, §3

PRC2/EZH2Y111D = target: T5, PRC2/EZH2Y111D (Homo sapiens, UniProt Q15910, Y111D); experiment: as above; format: biochemical
T5 construct: N-terminal 6His-tagged full length EZH2^Y641N, EZH2^Y111L, EZH2^Y111D; 6His (N); made in house; host or cells: Sf9 insect cells (baculovirus co-infection)
Method: as §2, §3

in vitro = in vitro ADME; settings: human, Caco-2, pH 7.2, 2 µM, 2 h, 37 °C
Method: Cells were kept at 37 °C in a humidified 5% CO2 atmosphere. Before the permeation assay was run, the culture medium was replaced by an FCS-free HEPES carbonate transport buffer (pH 7.2). For assessment of monolayer integrity, the transepithelial electrical resistance was measured. Test compounds were pre-dissolved in DMSO and added either to the apical or basolateral compartment at a final concentration of 2 µM. Before and after 2 h incubation at 37 °C, samples were taken from both compartments. Analysis of compound content was conducted after precipitation with methanol by LC/MS/MS analysis. Reference compounds were analyzed in parallel as assay control. Permeability (Papp) was calculated in the apical to basolateral (A → B) and basolateral to apical (B → A) directions. The efflux ratio basolateral (B) to apical (A) was calculated by dividing Papp B–A by Papp A–B.

PRC2/EZH2+/+ [6] = target: T1, PRC2/EZH2+/+; experiment: Kinetic probe competition assay (kPCA), TR-FRET; format: binding; settings: for Kd: sheet ePCA&kPCA RT, read-out: Kinetic Kd
Method: as §1
For measurements at 25, 30 and 37 °C, the temperature control functionality of the instrument was used.
TR-FRET kPCA traces were exported via Microsoft Excel to GraphPad Prism, where non-specific signals were subtracted and kinetic association competition traces were fitted to the Motulsky–Mahan model “kinetics of competitive binding” to obtain kon (k3), koff (k4) and KD parameters.

[7] = EZH2Y641N (- H3K27me3), sheet ePCA&kPCA RT

Work on `CCCc1cc(C)[nH]c(=O)c1CNC(=O)c1cc(-c2ccc(N3CCN(C(C)C)CC3)nc2)cc2c1cnn2C(C)C` [Compound 9, UNC1999] yielded a Ki (PRC2/EZH2+/+ [1]; EZH2+/+ (+ H3K27me3), sheet ePCA&kPCA RT, read-out: Equilibrium Ki) of 1.14 nM, a Ki (PRC2/EZH2+/+ [1]; EZH2+/+ (- H3K27me3), 5 °C, read-out: Ki (Equilibrium)) of 1.92 nM and a Ki (PRC2/EZH2+/+ [1]; EZH2+/+ (- H3K27me3), 15 °C, read-out: Ki (Equilibrium)) of 1.6 nM. The Ki (PRC2/EZH2+/+ [1]; EZH2+/+ (- H3K27me3), 30 °C, read-out: Ki (Equilibrium)) was 8.06 nM, the Ki (PRC2/EZH2+/+ [1]; EZH2+/+ (- H3K27me3), 37 °C, read-out: Ki (Equilibrium)) was 9.47 nM and the Ki (PRC2/EZH2+/+ [1]; EZH2+/+ (- H3K27me3), sheet ePCA&kPCA RT, read-out: Equilibrium Ki) was 2.83 nM. For the same molecule, the Ki (PRC2/EZH2+/+ [1]; wild type EZH2, absence of H3K27me3 peptide, read-out: Ki) was 2.8 ± 0.9 nM, the Ki (PRC2/EZH2+/+ [1]; wild type EZH2, saturating concentrations of H3K27me3 peptide, read-out: Ki) was 1.1 ± 0.5 nM and the “Calculated RT” value (PRC2/EZH2Y641N [2]; EZH2Y641N (+ H3K27me3)) was 0.07 h. The Kd (PRC2/EZH2Y641N [2]; EZH2Y641N (+ H3K27me3), kinetic, RT sheet) was 4.56 nM, the “Calculated RT” value (PRC2/EZH2Y641N [2]; EZH2Y641N (- H3K27me3)) was 0.0242 h and the Kd (PRC2/EZH2Y641N [2]; [7]) was 35 nM. For the same molecule, the Ki (PRC2/EZH2Y641N [3]; EZH2Y641N (+ H3K27me3), equilibrium, RT sheet) was 6.65 nM, the Ki (PRC2/EZH2Y641N [3]; [7]) was 26.5 nM and the IC50 (PRC2/EZH2+/+ [4]; 0' enzyme:inhibitor pre-incubation, read-out: SPA Mean IC50 (M) - 0' enzyme:inhibitor pre-incubation EZH2+/+) was 5.2e-09 M. For the same molecule, the IC50 (PRC2/EZH2+/+ [4]; 15' enzyme:inhibitor pre-incubation, read-out: SPA Mean IC50 (M) - 15' enzyme:inhibitor pre-incubation EZH2+/+) was 3.7e-09 M, the IC50 (PRC2/EZH2+/+ [4]; 60' enzyme:inhibitor pre-incubation, read-out: SPA Mean IC50 (M) - 60' enzyme:inhibitor pre-incubation EZH2+/+) was 3.1e-09 M and the IC50 (PRC2/EZH2Y641N [5]; 0' enzyme:inhibitor pre-incubation, read-out: SPA Mean IC50 (M) - 0' enzyme:inhibitor pre-incubation hEZH2Y641N) was 3.8e-08 M. For the same molecule, the IC50 (PRC2/EZH2Y641N [5]; 15' enzyme:inhibitor pre-incubation, read-out: SPA Mean IC50 (M) - 15' enzyme:inhibitor pre-incubation EZH2Y641N) was 3.6e-08 M, the IC50 (PRC2/EZH2Y641N [5]; 60' enzyme:inhibitor pre-incubation, read-out: SPA Mean IC50 (M) - 60' enzyme:inhibitor pre-incubation EZH2Y641N) was 3.2e-08 M and the IC50 (PRC2/EZH2 Y111L; 0' enzyme:inhibitor pre-incubation, read-out: SPA Mean IC50 (M) - 0' enzyme:inhibitor pre-incubation EZH2 Y111L) was 3.1e-08 M. The IC50 (PRC2/EZH2 Y111L; 15' enzyme:inhibitor pre-incubation, read-out: SPA Mean IC50 (M) - 15' enzyme:inhibitor pre-incubation EZH2 Y111L) was 2.2e-08 M, the IC50 (PRC2/EZH2 Y111L; 60' enzyme:inhibitor pre-incubation, read-out: SPA Mean IC50 (M) - 60' enzyme:inhibitor pre-incubation EZH2 Y111L) was 2.5e-08 M and the IC50 (PRC2/EZH2Y641N+Y661D; 0' enzyme:inhibitor pre-incubation, read-out: SPA Mean IC50 (M) - 0' enzyme:inhibitor pre-incubation EZH2Y641N+Y661D) was 3e-06 M. The IC50 (PRC2/EZH2Y641N+Y661D; 15' enzyme:inhibitor pre-incubation, read-out: SPA Mean IC50 (M) - 15' enzyme:inhibitor pre-incubation EZH2Y641N+Y661D) was 2.4e-06 M, the IC50 (PRC2/EZH2Y641N+Y661D; 60' enzyme:inhibitor pre-incubation, read-out: SPA Mean IC50 (M) - 60' enzyme:inhibitor pre-incubation EZH2Y641N+Y661D) was 3.2e-06 M and the IC50 (PRC2/EZH2Y111D; 0' enzyme:inhibitor pre-incubation, read-out: SPA Mean IC50 (M) - 0' enzyme:inhibitor pre-incubation EZH2Y111D) was 5.9e-06 M. It also gave an IC50 (PRC2/EZH2Y111D; 15' enzyme:inhibitor pre-incubation, read-out: SPA Mean IC50 (M) - 15' enzyme:inhibitor pre-incubation EZH2Y111D) of 4e-06 M, an IC50 (PRC2/EZH2Y111D; 60' enzyme:inhibitor pre-incubation, read-out: SPA Mean IC50 (M) - 60' enzyme:inhibitor pre-incubation EZH2Y111D) of 3.2e-06 M and a Papp A→B at 2 h, 2 µM (in vitro; apical to basolateral, read-out: PK Caco-2 Flux Papp A-B (mean)) of 0.314 ×10⁻⁶ cm/s. For the same molecule, the Papp B→A at 2 h, 2 µM (in vitro; basolateral to apical, read-out: PK Caco-2 Flux Papp B-A (mean)) was 12.6 ×10⁻⁶ cm/s, the “Calculated RT” value (PRC2/EZH2+/+ [6]; EZH2+/+ (+ H3K27me3)) was 0.20 h and the Kd (PRC2/EZH2+/+ [6]; EZH2+/+ (+ H3K27me3)) was 0.54 nM. For the same molecule, the “RT (Calculated)” value (PRC2/EZH2+/+ [6]; EZH2+/+ (- H3K27me3), 5 °C) was 0.341 h, the “RT (Calculated)” value (PRC2/EZH2+/+ [6]; EZH2+/+ (- H3K27me3), 15 °C) was 0.0983 h and the “RT (Calculated)” value (PRC2/EZH2+/+ [6]; EZH2+/+ (- H3K27me3), 30 °C) was 0.0171 h. For the same molecule, the “RT (Calculated)” value (PRC2/EZH2+/+ [6]; EZH2+/+ (- H3K27me3), 37 °C) was 0.0129 h, the “Calculated RT” value (PRC2/EZH2+/+ [6]; EZH2+/+ (- H3K27me3)) was 0.0369 h and the Kd (PRC2/EZH2+/+ [6]; EZH2+/+ (- H3K27me3)) was 2.39 nM.
